Laboratory results published in patent publication US20070292876A1, “METHODS FOR IDENTIFICATION OF COMPOUNDS THAT MIMIC THE SENESCENCE-INDUCING ACTIVITY OF RETINOIC ACID RECEPTOR LIGANDS” (Ordway Research Institute, Inc., priority 2006, published 2007).
“Also recorded” adds a separate entry of the source.

How the values were obtained:
Type in all cases: cell-based, human
MCF-7 cells [1] = assay: Effect on MCF-7 cell growth (cell number after 7 days exposure); details: LGD1550 100 nM, LG100815 10 μM, LGD1268 100 nM, LG101208 10 μM
Experimental: The bars represent cell number after 7 days of culture with the addition of DMSO (control), 100 nM RA, 100 nM RAR agonist LGD1550, 100 nM RXR agonist LGD1268, 10 μM RAR antagonist LG100815, and 10 μM RXR antagonist LG101208. Experiments were done in triplicate, and the results are expressed relative to the average of the control.
(§1) MCF-7 cells were plated at 5×10^5 per P100, and exposed on the next day to DMSO carrier, RA (100 nM), pan-RAR-specific ligands, LGD1550 (100 nM) and LG100815 (10 μM), pan-RXR specific agonist LGD1268, pan-RXR-specific antagonist LG101208, or drug-free DMSO carrier (control). The latter four compounds were provided by Ligand Pharmaceuticals, Inc. The effects of RAR ligands on the growth of MCF-7 cells were determined, as measured by the cell number after 7 days exposure to the compounds (FIG. 1) and on the fraction of cells expressing the senescence-associated β-galactosidase activity (SA-β-gal), a marker of senescence, after 7-day treatment with the compounds (FIG. 2).

MCF-7 cells [2] = assay: Senescence-associated β-galactosidase (SA-β-gal) positive fraction of MCF-7 cells; details: 7-day treatment; same concentrations as for cell growth
Experimental: The bars represent percentages of SA-P-gal+cells after 8 days of treatment with the indicated compounds (in triplicate). The compounds were used at the same concentrations as in FIG. 1.
as §1

MCF-7 cells [3] = assay: Affymetrix U133 Plus 2.0 microarray gene expression profiling: genes (oncogenes) inhibited by RAR ligands; details: 24, 48 or 72 hr treatment
Source text: (§2) FIG. 3 depicts microarray analysis of changes in gene expression in MCF-7 cells treated with RAR ligands LGD1550 or LG100815, plotted using GeneSpring software. The X axis represents different time points of treatment with RAR ligands (0 point correspond to cells cultured for 3 days with DMSO carrier). […] The groups of genes shown in panels (a) and (b) represent gene ontology (GO) categories, with the exclusion of genes showing raw signal intensity <10 in MCF-7 cells. The groups of genes shown in panels (c) and (d) represent the oncogenes and tumor suppressors listed in Table 1 and Table 2, respectively.
(§3) For the analysis of gene expression, cells treated with the carrier or with RAR ligands LGD1550 or LG100815 were collected after 24, 48 or 72 hr treatment. Total cellular RNA was isolated using Qiagen's RNeasy kit. For gene expression profiling, RNA samples were provided to the Microarray Core Facility at the Genomics Institute of the NYSDOH Wadsworth Center, which carried out biotinylated target preparation (using 2 μg RNA per assay) and hybridization with Affymetrix U133 Plus 2.0 microarrays. Data analysis was carried out using GeneSpring software (Agilent). Gene function analysis was carried out using Pathway Assist (Ariadne Genomics) and PubMed.
Gene Ontology groupings of genes with related biological functions (as provided in the GeneSpring software package) were surveyed for concerted response to RAR ligands. […] Strong downregulation of such genes has been associated with cell cycle arrest induced by chemotherapeutic drugs (Chang et al., 2002). In contrast, inhibition of these genes by RAR ligands was moderate (on average about 2-fold), with almost no genes showing 5-fold or stronger inhibition. On the other hand, we noticed that many of the genes that show the greatest fold inhibition by RAR ligands are known or putative oncogenes. Genes are defined herein as putative oncogenes or tumor suppressors if such genes have been reported in the literature to play a functional role in tumor cell growth, survival, tumorigenesis or metastasis, as determined by targeted inhibition, gene overexpression or protein addition studies.

MCF-7 cells [4] = assay: Affymetrix U133 Plus 2.0 microarray gene expression profiling: tumor suppressors induced by RAR ligands; details: 24, 48 or 72 hr treatment
Source text: as §2, §3
As previously described (Dokmanovic et al., 2002), retinoid treatment of MCF-7 cells induces genes that encode growth-inhibitory proteins, both intracellular (EPLIN and UBD) and secreted (IGFBP3 and TGFBI). Through the survey of the present microarray data, additional retinoid-inducible growth-inhibitory genes, induced both by LGD1550 and LG100815, have been identified. These genes, listed in Table 2, provide advantageous reporters for identifying compounds that mimic the senescence-inducing effects of retinoids. The products of these genes include both secreted factors and cell-associated proteins.

MDA-MB-231 cells = assay: Coculture of GFP-expressing MDA-MB-231 cells with RA-treated MCF-7 cells, MDA-MB-231 cell number by FACS
Experimental: Each bar represents MDA-MB-231 cell number after five days of culture relative to cell number in the absence of MCF-7 or RA. Mean and standard deviation were calculated from three independent experiments. • (b) MDA-MB-231 cells (GFP-expressing) were plated as 1:1 mixtures with MCF-7 cells that were either untreated or treated for eight days with 100 nM, and grown in the presence of DMSO carrier or 100 nM RA. Each bar represents MDA-MB-231 cell relative to MDA-MB-231 cell number in coculture with untreated MCF-7 without RA. Mean and standard deviation were calculated from three independent experiments.
Since retinoid-treated MCF-7 cells upregulate genes for secreted factors with different activities, a functional test was carried out to determine whether retinoid-treated MCF-7 cells express primarily pro-mitogenic or anti-mitogenic activity. In this assay, MCF-7 cells were mixed (1:1) with MDA-MB-231 breast carcinoma cells (insensitive to retinoids), which were transduced with Green Fluorescent Protein (GFP), providing the ability to distinguish and quantitate these cells by FACS analysis. The co-cultures were treated for five days with 100 nM RA. […] In contrast, retinoid treatment in coculture with MCF-7 decreased the number of MDA-MB-231 cells by about 25% (FIG. 4a). In another type of experiment, shown in FIG. 4b, MCF-7 cells were pre-treated for 8 days with RA, to allow for complete growth arrest and development of the senescent phenotype. The treated MCF-7 cells were collected by trypsinization and cocultured for three days with MDA-MB-231, in the presence or in the absence of RA. Coculture with RA-pretreated MCF-7 cells was sufficient to inhibit MDA-MB-231 cell growth by about 30%, as compared to coculture with untreated MCF-7 cells (FIG. 4B, left bar).

In the case of `Cc1cc2c(cc1C1(c3ccc(C(=O)O)cn3)CC1)C(C)(C)CCC2(C)C` [LGD1268], the “MCF-7 cell growth (cell number)” value (MCF-7 cells [1]) is reported as “did not inhibit cell growth; also recorded: modest but reproducible increase in cell growth” and the “fraction of cells expressing SA-β-gal (senescent phenotype)” value (MCF-7 cells [2]) is reported as “did not induce the senescent phenotype”.

With `CC(/C=C/C=C(\C)c1cc(C(C)(C)C)cc(C(C)(C)C)c1)=C\C(=O)O` [LGD1550] the “MCF-7 cell growth (cell number)” value (MCF-7 cells [1]) was “inhibited the cell growth”, the “fraction of cells expressing SA-β-gal (senescent phenotype)” value (MCF-7 cells [2]) was “induced SA-β-gal to an extent similar to that of RA” and the “Max fold inhibition of G6PD” value (MCF-7 cells [3]; probe 202275_at) was 2.2 fold. The “Max fold inhibition of CCNA2” value (MCF-7 cells [3]; probe 203418_at) was 3.3 fold, the “Max fold inhibition of PTTG1” value (MCF-7 cells [3]; probe 203554_x_at) was 2.7 fold and the “Max fold inhibition of PBX3” value (MCF-7 cells [3]; probe 204082_at) was 3.4 fold. For the same molecule, the “Max fold inhibition of FGFR3” value (MCF-7 cells [3]; probe 204379_s_at) was 5.0 fold, the “Max fold inhibition of TFF3” value (MCF-7 cells [3]; probe 204623_at, secreted) was 4.0 fold and the “Max fold inhibition of IRS1” value (MCF-7 cells [3]; probe 204686_at) was 2.6 fold. For the same molecule, the “Max fold inhibition of MYB” value (MCF-7 cells [3]; probe 204798_at) was 9.9 fold, the “Max fold inhibition of C4.4A” value (MCF-7 cells [3]; probe 204952_at) was 8.1 fold and the “Max fold inhibition of ENTPD5” value (MCF-7 cells [3]; probe 205757_at) was 3.4 fold. For the same molecule, the “Max fold inhibition of GREB1” value (MCF-7 cells [3]; probe 205862_at) was 4.8 fold, the “Max fold inhibition of HMMR” value (MCF-7 cells [3]; probe 207165_at) was 2.9 fold and the “Max fold inhibition of CCND1” value (MCF-7 cells [3]; probe 208711_s_at) was 2.1 fold. The “Max fold inhibition of BMP7” value (MCF-7 cells [3]; probe 209591_s_at, secreted) was 1.8 fold, the “Max fold inhibition of CXCL12” value (MCF-7 cells [3]; probe 209687_at, secreted) was 5.7 fold and the “Max fold inhibition of MSX2” value (MCF-7 cells [3]; probe 210319_x_at) was 4.0 fold. For the same molecule, the “Max fold inhibition of RET” value (MCF-7 cells [3]; probe 211421_s_at) was 8.5 fold, the “Max fold inhibition of PIK3R1” value (MCF-7 cells [3]; probe 212240_s_at) was 2.0 fold and the “Max fold inhibition of MYBL1” value (MCF-7 cells [3]; probe 213906_at) was 2.6 fold. The “Max fold inhibition of MAFB” value (MCF-7 cells [3]; probe 218559_s_at) was 7.5 fold, the “Max fold inhibition of VAV3” value (MCF-7 cells [3]; probe 218807_at) was 14.5 fold and the “Max fold inhibition of PDLIM2” value (MCF-7 cells [3]; probe 219165_at) was 4.0 fold. For the same molecule, the “Max fold inhibition of ECT2” value (MCF-7 cells [3]; probe 219787_s_at) was 2.8 fold, the “Max fold inhibition of SPDEF” value (MCF-7 cells [3]; probe 220192_x_at) was 14.2 fold and the “Max fold inhibition of AMIGO2” value (MCF-7 cells [3]; probe 222108_at) was 11.7 fold. The “Max fold inhibition of MALAT1” value (MCF-7 cells [3]; probe 224559_at) was 2.5 fold, the “Max fold induction of NBL1” value (MCF-7 cells [4]; probe 37005_at) was 4.0 fold and the “Max fold induction of GSN” value (MCF-7 cells [4]; probe 200696_s_at) was 1.7 fold. For the same molecule, the “Max fold induction of BTG1” value (MCF-7 cells [4]; probe 200921_s_at) was 2.5 fold, the “Max fold induction of PRSS11” value (MCF-7 cells [4]; probe 201185_at, secreted) was 1.9 fold and the “Max fold induction of BTG2” value (MCF-7 cells [4]; probe 201236_s_at) was 8.3 fold. The “Max fold induction of TGFBI” value (MCF-7 cells [4]; probe 201506_at, secreted) was 53.0 fold, the “Max fold induction of MARCKS” value (MCF-7 cells [4]; probe 201669_s_at) was 9.3 fold and the “Max fold induction of PRSS8” value (MCF-7 cells [4]; probe 202525_at, secreted) was 2.4 fold. For the same molecule, the “Max fold induction of IRF1” value (MCF-7 cells [4]; probe 202531_at) was 5.3 fold, the “Max fold induction of FBLN5” value (MCF-7 cells [4]; probe 203088_at, secreted) was 10.1 fold and the “Max fold induction of IGFBP6” value (MCF-7 cells [4]; probe 203851_at, secreted) was 2.6 fold. For the same molecule, the “Max fold induction of GADD45G” value (MCF-7 cells [4]; probe 204121_at) was 3.8 fold, the “Max fold induction of UBD” value (MCF-7 cells [4]; probe 205890_s_at) was 35.9 fold and the “Max fold induction of BATF” value (MCF-7 cells [4]; probe 205965_at) was 2.7 fold. The “Max fold induction of CEACAM1” value (MCF-7 cells [4]; probe 206576_s_at) was 16.2 fold, the “Max fold induction of PPARG” value (MCF-7 cells [4]; probe 208510_s_at) was 15.9 fold and the “Max fold induction of KLF6” value (MCF-7 cells [4]; probe 208961_s_at) was 2.2 fold. For the same molecule, the “Max fold induction of DDIT3” value (MCF-7 cells [4]; probe 209383_at) was 2.5 fold, the “Max fold induction of NKX3-1” value (MCF-7 cells [4]; probe 209706_at) was 7.5 fold and the “Max fold induction of IGFBP3” value (MCF-7 cells [4]; probe 210095_s_at, secreted) was 32.2 fold. The “Max fold induction of SULF1” value (MCF-7 cells [4]; probe 212354_at, secreted) was 2.9 fold, the “Max fold induction of PDCD4” value (MCF-7 cells [4]; probe 212593_s_at) was 1.7 fold and the “Max fold induction of EI24” value (MCF-7 cells [4]; probe 216396_s_at) was 2.2 fold. For the same molecule, the “Max fold induction of EPLIN” value (MCF-7 cells [4]; probe 217892_s_at) was 18.8 fold, the “Max fold induction of PHLDA1” value (MCF-7 cells [4]; probe 217996_at) was 3.7 fold and the “Max fold induction of GDF15” value (MCF-7 cells [4]; probe 221577_x_at, secreted) was 7.2 fold. The “Max fold induction of FOXO3A” value (MCF-7 cells [4]; probe 224891_at) was 2.3 fold, the “Max fold induction of HIPK2” value (MCF-7 cells [4]; probe 225368_at) was 3.7 fold and the “Max fold induction of TGFB2” value (MCF-7 cells [4]; probe 228121_at, secreted) was 2.0 fold. The “Max fold induction of CDKN2B” value (MCF-7 cells [4]; probe 236313_at) was 3.2 fold and the “Max fold induction of VHL” value (MCF-7 cells [4]; probe 1559227_s_at) was 2.0 fold.

For `CC1=C(/C=C/C(C)=C/C=C/C(C)=C/C(=O)O)C(C)(C)CCC1` [RA, all-trans retinoic acid], the “growth of MDA-MB-231 cells” value (MDA-MB-231 cells; 100 nM RA alone, without MCF-7 cells, five days) was “no effect”, the “decrease of the number of MDA-MB-231 cells” value (MDA-MB-231 cells; 100 nM RA in 1:1 coculture with MCF-7, five days) was “about 25%” and the “inhibition of MDA-MB-231 cell growth” value (MDA-MB-231 cells; coculture for three days with MCF-7 pre-treated 8 days with RA, vs coculture with untreated MCF-7) was “about 30%”. The “effect of addition of RA to the coculture on MDA-MB-231 growth inhibition” value (MDA-MB-231 cells; coculture with RA-pretreated MCF-7, 100 nM RA present, three days) was “no significant effect”.
